From ChEMBL document CHEMBL1138174, “Novel HIV-1 integrase inhibitors derived from quinolone antibiotics” (J Med Chem, 2006)

Experiments:
[1] = tested on: MT4; test: Cytotoxic activity against human MT4 cells infected with HIV1 by MTT assay; type: functional
[2] = tested on: MT4; test: Antiviral activity against HIV1 3b in human MT4 cells; type: functional, cell-based
[3] = target: Human immunodeficiency virus type 1 integrase (Human immunodeficiency virus 1, UniProt Q7ZJM1); test: Inhibition of recombinant HIV1 integrase strand transfer activity
Sequence of Human immunodeficiency virus type 1 integrase (Q7ZJM1 whole entry): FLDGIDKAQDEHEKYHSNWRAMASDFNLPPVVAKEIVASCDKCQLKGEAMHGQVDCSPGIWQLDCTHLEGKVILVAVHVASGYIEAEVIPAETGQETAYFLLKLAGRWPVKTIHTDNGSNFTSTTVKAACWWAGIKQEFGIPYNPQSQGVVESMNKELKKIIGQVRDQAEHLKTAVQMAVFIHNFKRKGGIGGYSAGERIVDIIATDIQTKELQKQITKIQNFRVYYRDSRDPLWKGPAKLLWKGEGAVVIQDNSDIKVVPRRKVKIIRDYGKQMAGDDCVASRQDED

Compound: COc1cc2c(cc1Cc1cccc(Cl)c1F)c(=O)c(C(=O)O)cn2[C@H](CO)C(C)C
- Activity [1]: 4 µM
- EC50 [2]: 0.9 nM

Compound: COc1cc2c(cc1Cc1cccc(Cl)c1F)c(=O)c(C(=O)O)cn2CCO
- IC50 [3]: 9.1 nM
- Activity [1]: 5.3 µM
- EC50 [2]: 17.1 nM

Compound: O=C(NCc1ccc(F)cc1)c1nc(N2CCCCS2(=O)=O)c2cccnc2c1O
- IC50 [3]: 22.8 nM
- Activity [1]: 0.7 µM
- EC50 [2]: 3.6 nM

Compound: O=C(O)c1cn(CCO)c2ccc(Cc3cccc(Cl)c3F)cc2c1=O
- IC50 [3]: 24.2 nM
- Activity [1]: >15 µM
- EC50 [2]: 76.3 nM

Compound: CC(C)[C@@H](CO)n1cc(C(=O)O)c(=O)c2cc(Cc3cccc(Cl)c3F)ccc21
- Activity [1]: 14 µM
- EC50 [2]: 7.5 nM

Compound: O=C(O)c1cnc2ccc(Cc3ccccc3)cc2c1O
- IC50 [3]: 1600 nM
- Activity [1]: >30 µM
- EC50 [2]: > 30000 nM

Compound: O=C(O)c1c[nH]c2ccc(Cc3cccc(Cl)c3F)cc2c1=O
- IC50 [3]: 43.5 nM
- Activity [1]: >12 µM
- EC50 [2]: 805 nM
